Patent EP0820772A1, “IMMUNOMODULATING MEDICINAL AGENT” (Travkin, Oleg Viktorovich, priority 1995, dated 1996)

Legend:
[1] = system: Herpes simplex-2 (Ela 5699 strain); test: Rabbit keratitis, severity of clinical symptoms; conditions: daily instillation: megosin 3% ointment, prototype 5% ointment, proposed drug 2.1% suspension; for Index of severity of clinical symptoms on day 5 following infection: control 14; for Index of severity of clinical symptoms on day 7 following infection: control 17; for Index of severity of clinical symptoms on day 9 following infection: control 13; for Index of severity of clinical symptoms on day 14 following infection: control 2
[2] = in vivo
leukosis L 1210 = test: Treatment of developing leukosis L 1210; conditions: orally on days 1, 2, 3 after transplantation; proposed drug 30 mg./kg., prototype 400 mg./kg.; control 96
Lympho-sarcoma = test: Antitumorous effectiveness, lympho-sarcoma tumour mass; conditions: intraperitoneally; proposed drug 30mg./kg. and prototype 300 mg./kg. on days 1, 2, 3 after transplantation; Adriamycin 600 μg./kg. on days 1 and 3; control 1124
Erlich’s carcinoma = test: Antitumorous effectiveness, Erlich's carcinoma tumour mass; conditions: intraperitoneally; proposed drug 300 mg./kg. and prototype 300 mg./kg. on days 1 and 3 after transplantation; Adriamycin 600 μg on day 1; control 540
[3] = system: Venezuelan equine encephalitis virus (SPF strain); format: in vivo; conditions: intraperitoneally, Poly (G) 0.1 g./kg. and prototype 200 mg./kg. at infection and 24 h after, proposed drug 20 mg./kg 4 h before and 24 h after infection
[4] = system: Herpes simplex - 1 (MS strain); test: Herpetic encephalitis, mortality; format: in vivo; conditions: 100 LD 50; 7 days after infection; intraperitoneally; AraA 20 mg./kg. every day; prototype 400 mg./kg. and proposed drug 25 mg./kg. 4 h before and 24 h after infection; control 100%
Semlika forest virus = Semlika forest virus infection, mortality; format: in vivo; conditions: 30 LD 50; 12 days after infection; intraperitoneally; Remantadin 20 mg./kg 4 h and 24 h after infection; proposed drug 10 mg./kg 4 h before and 24 h after infection; control 80%

Compound: CN(C)CCOc1ccc2cc3cc([N+](=O)[O-])c(OCCN(C)C)c(Cl)c3nc2c1Cl [The prototype, 3.6 - bis(2-dimethylaminetoxy)-4.5-dichlorine-2-nitroacridine]
- Index of severity of clinical symptoms on day 5 following infection [1]: 10
- Index of severity of clinical symptoms on day 7 following infection [1]: 14
- Index of severity of clinical symptoms on day 9 following infection [1]: 8
- Index of severity of clinical symptoms on day 14 following infection [1]: 1
- toxicity (therapeutic index) [2]: 10-15
- Percentage of blastular cells in peripheral blood (leukosis L 1210): 40%
- Indices of efficacy (Mean tumour mass (mg.)) (Lympho-sarcoma): 820 mg
- Indices of efficacy (Mean tumour mass (mg.)) (Erlich’s carcinoma): 200 mg
- Degree of suppression of viral reproduction in the brain 48 hours after infection, expressed as a percentage relative to the control [3]: 74%
- Indices of efficacy, % mortality [4]: 22%

Compound: ether of 10 - methylencarboxylat-9-acridone [The proposed drug]
- Index of severity of clinical symptoms on day 5 following infection [1]: 5
- Index of severity of clinical symptoms on day 7 following infection [1]: 3
- Index of severity of clinical symptoms on day 9 following infection [1]: 1
- Index of severity of clinical symptoms on day 14 following infection [1]: 0
- Indices of efficacy, % mortality (Semlika forest virus): 0%
- Percentage of blastular cells in peripheral blood (leukosis L 1210): 18%
- Indices of efficacy (Mean tumour mass (mg.)) (Lympho-sarcoma): 534 mg
- Indices of efficacy (Mean tumour mass (mg.)) (Erlich’s carcinoma): 74 mg
- Degree of suppression of viral reproduction in the brain 48 hours after infection, expressed as a percentage relative to the control [3]: 98%
- Indices of efficacy, % mortality [4]: 5%

Compound: CC(N)C12CC3CC(CC(C3)C1)C2 (stereo not drawn) [Remantadin]
- Indices of efficacy, % mortality (Semlika forest virus): 20%, 12 days after infection

Compound: COc1cccc2c1C(=O)c1c(O)c3c(c(O)c1C2=O)C[C@@](O)(C(=O)CO)C[C@@H]3O[C@H]1C[C@H](N)[C@H](O)[C@H](C)O1 [Adriamycin]
- Indices of efficacy (Mean tumour mass (mg.)) (Lympho-sarcoma): 622 mg
- Indices of efficacy (Mean tumour mass (mg.)) (Erlich’s carcinoma): 100 mg

Compound: Nc1ncnc2c1ncn2[C@@H]1O[C@H](CO)[C@@H](O)[C@@H]1O [AraA, adenin - arabinosid]
- Indices of efficacy, % mortality [4]: 42%, 7 days after infection
